Assays:
[1] = biological target: Type 1 fimbrin D-mannose specific adhesin (Escherichia coli K-12, UniProt P08191); assay: Antagonist activity at recombinant 6His-tagged thrombin cleavage site of FimH Lectin domain expressed in Escherichia coli HM125 assessed as dissociation constant incubated for 24 hrs in presence of FITC-labeled tracer by competitive fluorescence polarization assay
[2] = Antagonist activity at recombinant 6His-tagged thrombin cleavage site of FimH Lectin domain R98A mutant expressed in Escherichia coli HM125 assessed as dissociation constant measured after 24 hrs by fluorescence polarization assay

Type 1 fimbrin D-mannose specific adhesin, sequence (P08191 whole entry, the tested form may be a part): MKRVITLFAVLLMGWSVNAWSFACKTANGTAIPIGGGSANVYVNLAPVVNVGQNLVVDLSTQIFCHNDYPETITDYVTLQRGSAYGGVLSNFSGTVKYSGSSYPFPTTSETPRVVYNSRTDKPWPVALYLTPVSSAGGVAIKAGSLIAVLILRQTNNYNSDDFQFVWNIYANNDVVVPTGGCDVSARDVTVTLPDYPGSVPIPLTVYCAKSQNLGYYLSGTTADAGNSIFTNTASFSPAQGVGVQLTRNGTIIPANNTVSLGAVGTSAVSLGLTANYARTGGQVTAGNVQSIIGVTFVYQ

SMILES	Kd [1]	Kd [2]
COC(=O)COc1cccc(-c2cn([C@H]3O[C@H](CO)[C@@H](O)[C@H](O)[C@@H]3O)nn2)c1	175 nM	22.3 nM
O=C(O)COc1ccc(-c2cn([C@H]3O[C@H](CO)[C@@H](O)[C@H](O)[C@@H]3O)nn2)cc1	171 nM	14.6 nM
OC[C@H]1O[C@H](n2cc(-c3ccccc3)nn2)[C@@H](O)[C@@H](O)[C@@H]1O	336 nM	297 nM
O=C(O)CCCOc1cccc(-c2cn([C@H]3O[C@H](CO)[C@@H](O)[C@H](O)[C@@H]3O)nn2)c1	178 nM	20.7 nM
CCOC(=O)CCCOc1ccc(-c2cn([C@H]3O[C@H](CO)[C@@H](O)[C@H](O)[C@@H]3O)nn2)cc1	60.7 nM	8.07 nM
O=C(O)CCCCOc1cccc(-c2cn([C@H]3O[C@H](CO)[C@@H](O)[C@H](O)[C@@H]3O)nn2)c1	78.5 nM	16.3 nM
O=C(O)CCCCCCCOc1cccc(-c2cn([C@H]3O[C@H](CO)[C@@H](O)[C@H](O)[C@@H]3O)nn2)c1	> 1000 nM	–
CCOC(=O)CCCCOc1cccc(-c2cn([C@H]3O[C@H](CO)[C@@H](O)[C@H](O)[C@@H]3O)nn2)c1	65 nM	16.2 nM
O=C(O)CCCOc1ccc(-c2cn([C@H]3O[C@H](CO)[C@@H](O)[C@H](O)[C@@H]3O)nn2)cc1	63.3 nM	9.45 nM
O=C(O)CCCCCCOc1cccc(-c2cn([C@H]3O[C@H](CO)[C@@H](O)[C@H](O)[C@@H]3O)nn2)c1	533 nM	63.2 nM
O=C(O)COc1cccc(-c2cn([C@H]3O[C@H](CO)[C@@H](O)[C@H](O)[C@@H]3O)nn2)c1	356 nM	29 nM
COC(=O)COc1ccc(-c2cn([C@H]3O[C@H](CO)[C@@H](O)[C@H](O)[C@@H]3O)nn2)cc1	66.2 nM	7.22 nM
COC(=O)CCCOc1cccc(-c2cn([C@H]3O[C@H](CO)[C@@H](O)[C@H](O)[C@@H]3O)nn2)c1	143 nM	16 nM
CCOC(=O)CCCCCCCOc1cccc(-c2cn([C@H]3O[C@H](CO)[C@@H](O)[C@H](O)[C@@H]3O)nn2)c1	107 nM	25 nM
CCOC(=O)CCCCCCOc1cccc(-c2cn([C@H]3O[C@H](CO)[C@@H](O)[C@H](O)[C@@H]3O)nn2)c1	69.1 nM	13.4 nM

Stronger by Kd [1], values ahead:

Kd [1]	SMILES	Kd [2]
7.6 nM	CCOC(=O)CCCCCCOc1ccc(-c2cn([C@H]3O[C@H](CO)[C@@H](O)[C@H](O)[C@@H]3O)nn2)cc1	1.3 nM
48.8 nM	CCOC(=O)CCCCCOc1cccc(-c2cn([C@H]3O[C@H](CO)[C@@H](O)[C@H](O)[C@@H]3O)nn2)c1	11.5 nM
36.8 nM	CCCCCCCO[C@H]1O[C@H](CO)[C@@H](O)[C@H](O)[C@@H]1O	35.6 nM
48.5 nM	O=C(O)CCCCOc1ccc(-c2cn([C@H]3O[C@H](CO)[C@@H](O)[C@H](O)[C@@H]3O)nn2)cc1	11.2 nM
44.7 nM	O=C(O)CCCCCCCOc1ccc(-c2cn([C@H]3O[C@H](CO)[C@@H](O)[C@H](O)[C@@H]3O)nn2)cc1	10.1 nM
50.6 nM	CCOC(=O)CCCCOc1ccc(-c2cn([C@H]3O[C@H](CO)[C@@H](O)[C@H](O)[C@@H]3O)nn2)cc1	10.1 nM
36.7 nM	O=C(O)CCCCCOc1ccc(-c2cn([C@H]3O[C@H](CO)[C@@H](O)[C@H](O)[C@@H]3O)nn2)cc1	7.5 nM
56 nM	O=C(O)CCCCCOc1cccc(-c2cn([C@H]3O[C@H](CO)[C@@H](O)[C@H](O)[C@@H]3O)nn2)c1	17.3 nM
42.8 nM	CCOC(=O)CCCCCCCOc1ccc(-c2cn([C@H]3O[C@H](CO)[C@@H](O)[C@H](O)[C@@H]3O)nn2)cc1	8.8 nM
37.8 nM	O=C(O)CCCCCCOc1ccc(-c2cn([C@H]3O[C@H](CO)[C@@H](O)[C@H](O)[C@@H]3O)nn2)cc1	7.6 nM
32.6 nM	CCOC(=O)CCCCCOc1ccc(-c2cn([C@H]3O[C@H](CO)[C@@H](O)[C@H](O)[C@@H]3O)nn2)cc1	6.6 nM

Reference: ChEMBL document CHEMBL4819007, “Does targeting Arg98 of FimH lead to high affinity antagonists?” (Eur J Med Chem, 2021)
